In US9221868B2, “Uridine di- or tri-phosphate derivatives and uses thereof” (BAR-ILAN UNIVERSITY, priority 2010, dated 2015):

Key:
[1] = molecular target: T1, P2Y6-R (Homo sapiens, UniProt Q15077); experiment: [Ca2+]i increase in 1321N1 astrocytoma cells expressing P2Y6-R; assay type: cell-based; conditions: for EC50: 1321N1 astrocytoma cells, [Ca2+]i, read-out: Potencies (EC50) at the P2Y6-R
T1 construct: expressed in transfected cells; host or cells: 1321N1 astrocytoma cells
Description: (§1) Green fluorescent protein (GFP) constructs of human P2Y2-R, P2Y4-R and P2Y6-R were expressed in 1321N1 astrocytoma cells, which lack endogenous expression of P2X- and P2Y-receptors. The respective cDNA of the receptor gene was cloned into a pEGFPN1 vector. After transfection using FuGENE 6 Transfection Reagent (Roche Molecular Biochemicals, Mannheim, Germany), the cells were selected with 0.5 mg/ml G418 (geneticine; Merck Chemicals, Darmstadt, Germany) and grown in Dulbecco's modified Eagles' medium (DMEM) supplemented with 10% fetal calf serum, 100 U/ml penicillin and […] at 37° C. and 5% CO2. The expression and cell membrane localization of the respective P2Y receptors was confirmed through the analysis of the GFP fluorescence. The functionality of the expressed GFP-labeled receptor in cells was verified by recording a change of [Ca^2+]i after stimulation with the appropriate receptor agonist.
(§2) 1321N1 astrocytoma cells transfected with the respective plasmid for P2YR-GFP expression plated on coverslips (22 mm diameter) and grown to approximately 80% density were incubated with 2 μM fura 2/AM and 0.02% pluronic acid in Na-HBS buffer (Hepes buffered saline: 145 mM NaCl, 5.4 mM KCl, 1.8 mM CaCl2, 1 mM MgCl2, 25 mM glucose, 20 mM Hepes/Tris pH 7.4) for 30 min at 37° C. The cells were superfused (1 ml/min, 37° C.) with different concentrations of nucleotide in Na-HBS buffer, and the nucleotide-induced change of [Ca^2+]i was measured by detecting the respective emission intensity of fura 2/AM at 510 nm with after 340 nm and 380 nm excitations (Ubl et al., 1998). The average maximal amplitude of the responses and the respective standard errors were calculated from the ratio of the fura 2/AM fluorescence intensities with excitations at 340 nm and 380 nm (only MT-labeled cells were analysed). Microsoft Excel (Microsoft Corp., Redmond, Wash., USA) and SigmaPlot (SPSS Inc., Chicago, Ill., USA) were used to derive the concentration-response curves and EC50 values from the average response amplitudes obtained in at least three independent experiments (Ecke et al., 2006, 2008). Only cells with a clear MT-signal and with the typical calcium response kinetics upon agonist pulse application were included in the data analysis. The GFP-tagged P2Y receptors are suitable for pharmacological and physiological studies, as previously reported (Tulapurkar et al., 2004, 2006; Zylberg et al., 2007).
1321N1 cell lines stably expressing the human P2Y6 receptors were grown as previously described in DMEM (5% FBS, 100 IU/ml penicillin, 100 μg/ml streptomycin, 1× Glutamax, 10 mM Hepes and 0.5 mg/ml G-418) at 37° C. in a humidified atmosphere containing 5% CO2 and 95% air (Gendron et al., 2003).
1321N1 cells (10×10^6 cells grown in 10 cm^2 dishes) were harvested by a brief trypsin/EDTA treatment, suspended in complete culture medium, and washed by centrifugation for 3 min at 100×g before being incubated with 1 μM Fluo 4/AM in 4.5 ml HBSS with Ca^2+ and Mg^2+ (Wisent, St. Bruno, QC) for 25 min at 37° C. Cells were washed by centrifugation (100×g, 3 min), suspended in HBSS containing Ca^2+ and Mg^2+, and incubated for 25 min at 37° C. Cells were washed and suspended in 16 ml of FIBSS containing Ca^+ and Mg^2+. Cell suspension (2 ml) was gently stirred in a quartz cuvette while [Ca^2+]i and monitored on a RF-5301 PC Shimadzu spectrofluorometer with Panormama fluorescence 1.1 software (Man-Tech, Guelph, ON). Excitation wavelengths of 488 nm and emission wavelength of 520 nm were used to measure changes in intracellular Fluo 4 fluorescence intensity (F). At the end of each recording, maximal fluorescence (Fmax) and minimal fluorescence (Fmin) were determined by adding successively 0.1% Triton X-100 and 50 mM EDTA to cell suspensions. The following equation from Grynkiewicz et al. (1985) was used to relate the fluorescence intensity to Ca^2+ levels: [Ca^2+]=Kd×(F−Fmin)/(Fmax−F), wherein Kd is the Ca^+ dissociation constant of the indicator (345 nM). […]

[2] = molecular target: T2, P2Y4-R (Homo sapiens, UniProt P51582); experiment: [Ca2+]i increase in 1321N1 astrocytoma cells expressing P2Y4-R; assay type: cell-based; conditions: n.d.r = no detectable response up to 100 μM
T2 construct: expressed in transfected cells; host or cells: 1321N1 astrocytoma cells
Description: as §1, §2
In this study, analogues 13-17 were tested for their potency and selectivity at P2Y2,4,6-receptors based on measurements of increases in intracellular calcium concentrations in 1321N1 astrocytoma cells transfected with the respective plasmid, as described in Materials and Methods, and the results are summarized in Table 2.

[3] = test system: intraocular pressure in normotense rabbits; experiment: Intraocular pressure (IOP) in normotense rabbits; assay type: in vivo, New Zealand white rabbits; conditions: for Reduction of IOP: applied to the cornea, 100 μM, 10 μl
Description: Twenty-four male New Zealand white rabbits (2.5±0.5 kg) were kept in individual cages with free access to food and water on controlled 12 h/12 h light/dark cycles. All the protocols used adhere to the Association for Research in Vision and Ophthalmology (ARVO) Statement for the Use of Animals in Ophthalmology and Vision Research and also are in accordance with the European Communities Council Directive (86/609/EEC).
Intraocular pressure (IOP) was measured by means of a TonoVET rebound tonometer supplied by Tiolat Oy (Helsinki, Finland). […] For single dose experiments, different analogues were applied unilaterally to the cornea at a concentration of 100 μM and a fixed volume of 10 μl. The contralateral eye received the same volume of saline solution (0.9% NaCl, vehicle). Two IOP measurements were taken before any analogue was instilled. Experiments were performed following a blinded design where no visible indication was given to the experimenter as to the nature of the applied solution. IOP was followed up to 8 h to study the time course of the effect. Some of the analogues were assayed over a range of doses from 1 nM to 100 μM to generate dose-response curves. For these experiments, […] was measured as the maximal response obtained with each dose of the analogue. Dose-response curves were calculated by plotting the IOP value for given concentration versus that concentration (from 1 nM to 100 μM). pD2 values were obtained by fitting the values to a dose-response-curve equation according to ORIGIN8.0 software. With the pD2 value it was possible to calculate the EC50 by multiplying by −1 and then take the antilogarithm. The obtained value is the EC50 expressed in molar concentration. In all experiments, on any given day, only a single dose was tested on a single animal, which was washed out at least 2 days between doses. […]
All data are presented as the means±s.e.m. Significant differences were determined by two-tailed Student's t-tests. […]

T1 sequence (Q15077 whole entry): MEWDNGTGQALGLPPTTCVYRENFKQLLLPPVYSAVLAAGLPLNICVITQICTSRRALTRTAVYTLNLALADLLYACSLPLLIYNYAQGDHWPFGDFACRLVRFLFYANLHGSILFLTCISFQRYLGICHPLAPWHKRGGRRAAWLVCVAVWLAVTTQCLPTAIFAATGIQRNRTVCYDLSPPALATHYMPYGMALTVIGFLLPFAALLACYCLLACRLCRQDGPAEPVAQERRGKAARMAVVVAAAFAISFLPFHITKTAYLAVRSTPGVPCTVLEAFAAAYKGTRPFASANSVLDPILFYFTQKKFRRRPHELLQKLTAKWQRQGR
T2 sequence (P51582 whole entry): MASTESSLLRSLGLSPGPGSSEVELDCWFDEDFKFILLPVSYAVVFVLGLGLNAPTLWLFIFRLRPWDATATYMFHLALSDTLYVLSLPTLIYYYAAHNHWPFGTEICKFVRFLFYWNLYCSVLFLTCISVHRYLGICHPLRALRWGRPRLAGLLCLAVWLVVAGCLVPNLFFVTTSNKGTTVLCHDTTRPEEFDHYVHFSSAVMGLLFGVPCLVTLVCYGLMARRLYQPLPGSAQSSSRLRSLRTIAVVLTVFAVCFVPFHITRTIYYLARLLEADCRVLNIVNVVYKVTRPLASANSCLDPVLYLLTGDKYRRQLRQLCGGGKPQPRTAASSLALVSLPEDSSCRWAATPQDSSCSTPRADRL

EC50 [1] [nM] | Potency of A-isomer relative to the corresponding B-isomer at P2Y6-R ([1]; ratio of EC50 values) | Potencies (EC50) at the P2Y4-R [2] | Structure (SMILES) | Duration of action (IOP reduction) [3] | Reduction of IOP [3] [%]
8 | more than 500 fold | n.d.r | [BH3-][P+](O)(OCC1OC(n2cc(OC)c(=O)[nH]c2=O)C(O)C1O)OP(=O)(O)O (single isomer, unassigned) [Analogue 13A, 5-methoxyuridine-5′-O-(α-boranodiphosphate)] | about 4 h | 45
150 |  |  | O=c1ccn([C@@H]2O[C@H](COP(=O)(O)OP(=O)(O)O)[C@@H](O)[C@H]2O)c(=O)[nH]1 [UDP, reference compound] |  | 
 |  |  | COc1cn([C@@H]2O[C@H](COP(=O)(O)OP(=O)(O)O)[C@@H](O)[C@H]2O)c(=O)[nH]c1=O [Analogue 12, 5-methoxyuridine diphosphate] |  | 31
